# In patent US20050009908A1, “Aqueous dispersion comprising stable nonoparticles of a water-insoluble active and an excipient like middle chain triglycerides (mct)” (priority 2001, published 2005):
# Where two headings read alike, the source gives them in different places.
# Assay: Solubility of crystalline substance in the inhibitor (HPLC of saturated solution)
# Assay type: physicochemical
# Excerpt: The mole fraction solubility of the crystalline substantially water-insoluble substance in the inhibitor (x^S1) is simply the number of moles of substance per mole of inhibitor present in a saturated solution of the substance in the inhibitor. As will be realized the equation above is derived for a two component system of a substance and an inhibitor. In those systems where the inhibitor contains more than one compound (for example in the case of a medium chain triglyceride comprising a mixture of triglycerides such as Miglyol 812N, or where a mixture of inhibitors is used) it is sufficient to calculate x^S1 in terms of the “apparent molarity” of the mixture of inhibitors. The apparent molarity of such a mixture is calculated for a mixture of n inhibitor components to be: [formula] • wherein: a, b . . . n are the weight fraction of each component in the inhibitor mixture (for example for component a this is %w/w component a/100); and • Mwa . . . Mwn is the molecular weight of each component a . . . n in the mixture. • x^S1 is then calculated as: [formula]
# The mole-fraction solubility of the felodipine/Miglyol 812N (x^sl in Equation I) was determined by magnetically stirring an excess of crystalline felodipine (approx 2-5 times that required for a saturated solution) in Miglyol 812N (5-25 ml) at 350 rpm (protected from light and sealed under a nitrogen atmosphere) for 2 days at room temperature. The resulting mixture was filtered to remove solids (0.2 μm filter) and then analyzed using BPLC to determine the quantity of felodipine dissolved in the Miglyol 812N. […] Miglyol 812N is a mixture of approximately 60% C8-triglyceride (Mw 471) and 40% C10-triglyceride (Mw 555) and has a density of approximately 0.945 g/cm^3. Thus, the apparent molarity of Miglyol 812N is 945/(0.6*471+0.4*555)=1.9].
# [1] = oil or lipid, thermodynamic from solid
mole fraction solubility in Miglyol 812N,mole fraction solubility in Miglyol 812N/1-decanol mixture,solubility [1],solubility at 2 days [1],"solubility at 2 days (Miglyol 812N (medium chain triglyceride mixture), oil or lipid, thermodynamic from solid, room temperature, 2 days stirring, read-out: solubility in Miglyol 812N)",SMILES
0.00116,0.0103,37 mM,2.2 mM,,"CCc1cccc(C)c1CNc1cc(C(N)=O)cn2c(C)c(C)nc12 [8-[(2-ethyl-6-methylbenzyl)amino]-2,3-dimethylimidazo[1,2-a]pyridine-6-carboxamide]"
,,,,69 mM,CCOC(=O)C1=C(C)NC(C)=C(C(=O)OC)C1c1cccc(Cl)c1Cl (centres unmarked) [felodipine]
